In patent US12370232B2, “Use of polyphenol containing sugar cane extracts for preventing, improving or treating a skin condition” (priority 2017, dated 2025):

Assays:
tyrosinase = assay: Tyrosinase inhibition assay; format: biochemical
Experimental: A tyrosinase inhibition assay was performed to determine the tyrosinase inhibition potential of an extract derived from sugar cane of the present disclosure. […]
To measure tyrosinase inhibition potential of an extract derived from sugar cane of the present disclosure, tyrosinase was added to a mixture of a test sample solution containing an extract derived from sugar cane, L-DOPA, and phosphate buffer (pH 6.8), which was then incubated at 37° C. for 5 hours. Tyrosinase activity was determined through the amount of dopachrome production in the mixture, which was measured by optical density at 450 nm. Dopachrome is a cyclization product of L-DOPA, an intermediate in the biosynthesis of melanin.

MMP-1 = MMP-1 inhibition assay in UV irradiated human skin cells (zymography); format: cell-based
Experimental: The UV protection function of an extract derived from sugar cane of the present disclosure on skin using human skin cells was investigated. MMP-1, one of the key matrix metalloproteinases (MMPs) that is viewed as an indicator for tissue integrity breakdown and wrinkle formation, was used as a biomarker for skin damage. MMP-1 inhibitors have been related to skin aging prevention and therapy. An MMP-1 inhibition assay was performed to determine the MMP-1 inhibition potential of an extract derived from sugar cane of the present disclosure. […] In order to determine the UV protection ability of a test sample of an extract derived from sugar cane of the present disclosure, human skin cells were treated with (and without) the test sample followed by UV irradiation. The treated cells were then disrupted by subjection to several freeze-thaw cycles, and the proteins were obtained by centrifugation. Using the collected lysate, zymography was used to determine the enzymatic activity of secreted MMP-1. In the zymography, the proteins were separated by electrophoresis under denaturing (sodium dodecyl sulfate, SDS), nonreducing conditions. The separation occurred in a polyacrylamide gel containing a collagen substrate that was co-polymerized with the acrylamide. […] After electrophoresis, the gel was washed and subsequently incubated in an appropriate activation buffer. During this incubation, the concentrated, renatured MMPs in the gel digested the collagen substrate. After incubation, the gel was stained with Coomassie® Blue, and the MMPs were detected as clear bands against a blue background of undegraded substrate. The clear bands in the gel was quantified by densitometry. Avobenzone, a known MMP-1 inhibitor, was used as an assay control.

## O=c1cc(CO)occ1O [Kojic Acid, Kojic acid]
tyrosinase
  Concentration inducing the maximum inhibition: 1000 µM
tyrosinase; Conc. 3.91 uM
  Inhibition (%) Result: −11.66%
tyrosinase; Conc. 7.81 uM
  Inhibition (%) Result: −9.33%
tyrosinase; Conc. 15.63 uM
  Inhibition (%) Result: −4.66%
tyrosinase; Conc. 31.25 uM
  Inhibition (%) Result: 1.23%
tyrosinase; Conc. 62.50 uM
  Inhibition (%) Result: 12.35%
tyrosinase; Conc. 125.00 uM
  Inhibition (%) Result: 30.45%
tyrosinase; Conc. 250.00 uM
  Inhibition (%) Result: 52.40%
tyrosinase; Conc. 500.00 uM
  Inhibition (%) Result: 75.45%
tyrosinase; Conc. 1000.00 uM
  Inhibition (%) Result: 90.12%
tyrosinase; at 1000 μM
  Maximum inhibition achieved: 90.12%

## COc1ccc(C(=O)CC(=O)c2ccc(C(C)(C)C)cc2)cc1 [avobenzone, Avobenzone]
MMP-1
  Concentration inducing the maximum inhibition: 10%
MMP-1; Conc 0.31 %
  MMP-1 inhibition (%) Average: 5.0%
  MMP-1 inhibition (%) Replicate 2: 5.0%
MMP-1; Conc 0.63 %
  MMP-1 inhibition (%) Average: 44.1%
  MMP-1 inhibition (%) Replicate 1: 22.51%
  MMP-1 inhibition (%) Replicate 2: 65.72%
MMP-1; Conc 1.25 %
  MMP-1 inhibition (%) Average: 48.5%
  MMP-1 inhibition (%) Replicate 1: 56.96%
  MMP-1 inhibition (%) Replicate 2: 39.99%
MMP-1; Conc 2.50 %
  MMP-1 inhibition (%) Average: 79.8%
  MMP-1 inhibition (%) Replicate 1: 77.44%
  MMP-1 inhibition (%) Replicate 2: 82.22%
MMP-1; Conc 5.00 %
  MMP-1 inhibition (%) Average: 90.7%
  MMP-1 inhibition (%) Replicate 1: 85.34%
  MMP-1 inhibition (%) Replicate 2: 96.03%
MMP-1; Conc 10.00 %
  MMP-1 inhibition (%) Average: 97.5%
  MMP-1 inhibition (%) Replicate 1: 95.44%
  MMP-1 inhibition (%) Replicate 2: 99.52%
MMP-1; at 10%
  Maximum inhibition achieved: 97.50%
MMP-1; effective concentration at 50% of maximal inhibition
  EC50: 1.22%
